In patent publication US8735411B2, “Macrocyclic benzofused pyrimidine derivatives” (AbbVie Inc., priority 2006, dated 2014):

Target: histamine H4 receptor (Homo sapiens, UniProt Q9H3N8)
Test: In vitro histamine H4 potency in FLIPR (Ca2+ flux, HEK-293 cells coexpressing Gαqi5)
Type: cell-based
Design: expressed in transfected cells
Conditions: Kb for antagonists and inverse agonists, EC50 for partial agonists
Source text: There are many methods available to show the effectiveness of compounds as histamine H4 receptor ligands. Histamine H4 receptors from mammalian species have been cloned. Methods to clone, express, and assess the potency and functional activity of such cloned genes are well known to those skilled in the art of molecular biology. […] Before testing, cells are loaded with a Ca^+2 sensitive fluorescent dye, in this case Fluo-4. In the case of partial agonist or agonist ligands, addition of compound to the cells leads to the increase in intracellular Ca^+2 which is detected by FLIPR (Fluorescence Imaging Plate Reader; Molecular Devices, Sunnyvale, Calif.) technology. […] The fluorescence intensities measured before addition of the test compound are subtracted from the fluorescence intensities at later time points. Peak response values determined at each concentration of ligand are expressed as a percentage of the response obtained with the full agonist histamine. Concentration versus response data are analyzed to obtain compound potency as Kb values for antagonists and inverse agonists and as EC50 values for partial agonists.

Compound | Potency [nM]
Nc1nc(O[C@H]2CCNC2)c2c(n1)-c1ccccc1CCC2 [Example 73, 4-((S)-Pyrrolidin-3-yloxy)-6,7-dihydro-5H-benzo[6,7]cyclohepta[1,2-d]pyrimidin-2-ylamine] | 468
CN(C)CCOc1nc(N)nc2c1CCCc1ccccc1-2 [Example 74, 4-(2-Dimethylamino-ethoxy)-6,7-dihydro-5H-benzo[6,7]cyclohepta[1,2-d]pyrimidin-2-ylamine] | 219
Nc1nc2c(c(N3CC4CNCC3C4)n1)CCCc1ccccc1-2 (centres unmarked) [Example 81, 4-(3,6-Diaza-bicyclo[3.2.1]oct-6-yl)-6,7-dihydro-5H-benzo[6,7]cyclohepta[1,2-d]pyrimidin-2-ylamine] | 4169
Nc1nc2c(c(N3CCC4CC3CN4)n1)CCCc1ccccc1-2 (centres unmarked) [Example 82, 4-(2,6-Diaza-bicyclo[3.2.1]oct-2-yl)-6,7-dihydro-5H-benzo[6,7]cyclohepta[1,2-d]pyrimidin-2-ylamine] | 2042
CN1CCC2CN(c3nc(N)nc4c3CCCc3ccccc3-4)CC2C1 (centres unmarked) [Example 85, 4-(5-Methyl-octahydro-pyrrolo[3,4-c]pyridin-2-yl)-6,7-dihydro-5H-benzo[6,7]cyclohepta[1,2-d]pyrimidin-2-ylamine] | 85
CN1CC2CC(C1)N(c1nc(N)nc3c1CCCc1ccccc1-3)C2 (centres unmarked) [Example 86, 4-(3-Methyl-3,6-diaza-bicyclo[3.2.1]oct-6-yl)-6,7-dihydro-5H-benzo[6,7]cyclohepta[1,2-d]pyrimidin-2-ylamine] | 891
c1cncc(CNc2nc3c(c(N4CC5CCCNC5C4)n2)CCCc2ccccc2-3)c1 (centres unmarked) [Example 92, 6-(2-pyridin-3-ylmethylamino-6,7-dihydro-5H-benzo[6,7]cyclohepta[1,2-d]pyrimidin-4-yl)octahydro-1H-pyrrolo[3,4-b]pyridine] | 2570
Nc1nc2c(c(N3CC4CCCNC4C3)n1)CCSc1ccccc1-2 (centres unmarked) [Example 96, 4-(Octahydro-pyrrolo[3,4-b]pyridin-6-yl)-5,6-dihydro-7-thia-1,3-diaza-dibenzo[a,c]cyclohepten-2-ylamine] | 19
CN[C@@H]1CCN(c2nc(N)nc3c2CCCc2cc4c(cc2-3)CCCC4)C1 [Example 97, 4-((R)-3-Methylamino-pyrrolidin-1-yl)-6,7,9,10,11,12-hexahydro-5H-1,3-diaza-benzo[3,4]cyclohepta[1,2-b]naphthalen-2-ylamine] | 29
Nc1nc2c(c(N3CC4CCCNC4C3)n1)CCCc1cc3c(cc1-2)CCCC3 (centres unmarked) [Example 98, 4-(Octahydro-pyrrolo[3,4-b]pyridin-6-yl)-6,7,9,10,11,12-hexahydro-5H-1,3-diaza-benzo[3,4]cyclohepta[1,2-b]naphthalen-2-ylamine] | 52
Nc1nc2c(c(N3CCNCC3)n1)CCCc1cc3c(cc1-2)CCCC3 [Example 99, 4-Piperazin-1-yl-6,7,9,10,11,12-hexahydro-5H-1,3-diaza-benzo[3,4]cyclohepta[1,2b]naphthalen-2-ylamine] | 25
CN[C@@H]1CCN(c2nc(N)nc3c2CCOc2cc(I)ccc2-3)C1 [Example 100, 9-Iodo-4-((R)-3-methylamino-pyrrolidin-1-yl)-5,6-dihydro-7-oxa-1,3-diaza-dibenzo[a,c]cyclohepten-2-ylamine] | 120
Nc1nc2c(c(N3CCNCC3)n1)CCOc1cc(I)ccc1-2 [Example 101, 9-Iodo-4-piperazin-1-yl-5,6-dihydro-7-oxa-1,3-diaza-dibenzo[a,c]cyclohepten-2-ylamine] | 269
Nc1nc2c(c(N3CC4CCCNC4C3)n1)CCOc1cc(I)ccc1-2 (centres unmarked) [Example 102, 9-Iodo-4-octahydro-pyrrolo[3,4-b]pyridin-6-yl-5,6-dihydro-7-oxa-1,3-diaza-dibenzo[a,c]cyclohepten-2-ylamine] | 45
c1ccc2c(c1)CCCc1c-2nc(N2CCNCC2)nc1N1CCNCC1 [Example 103, 2,4-Di-piperazin-1-yl-6,7-dihydro-5H-benzo[6,7]cyclohepta[1,2-d]pyrimidine] | 351
N#Cc1ccc2c(c1)OCCc1c-2nc(N)nc1N1CC2CCCNC2C1 (centres unmarked) [Example 104, 2-Amino-4-octahydro-pyrrolo[3,4-b]pyridin-6-yl-5,6-dihydro-7-oxa-1,3-diaza-dibenzo[a,c]cycloheptene-9-carbonitrile] | 141
Nc1nc2c(c(N3CC4CCCNC4C3)n1)CCOc1cc(-c3ccccc3)ccc1-2 (centres unmarked) [Example 105, 4-Octahydro-pyrrolo[3,4-b]pyridin-6-yl-9-phenyl-5,6-dihydro-7-oxa-1,3-diaza-dibenzo[a,c]cyclohepten-2-ylamine] | 83
Nc1nc2c(c(N3CC4CCCNC4C3)n1)CCOc1cc(-c3cccnc3)ccc1-2 (centres unmarked) [Example 106, 4-Octahydro-pyrrolo[3,4-b]pyridin-6-yl-9-pyridin-3-yl-5,6-dihydro-7-oxa-1,3-diaza-dibenzo[a,c]cyclohepten-2-ylamine] | 140

Continued, values first:

Potency [nM] | Compound
1097 | Nc1nc(OC2CCNCC2)c2c(n1)-c1ccccc1CCC2 [Example 72, 4-(Piperidin-4-yloxy)-6,7-dihydro-5H-benzo[6,7]cyclohepta[1,2-d]pyrimidin-2-ylamine]
4898 | Nc1nc2c(c(N3CCC4(CCCCN4)CC3)n1)CCCc1ccccc1-2 [Example 75, 4-(1,9-Diaza-spiro[5.5]undec-9-yl)-6,7-dihydro-5H-benzo[6,7]cyclohepta[1,2-d]pyrimidin-2-ylamine]
55 | CN(C)[C@@H]1CCN(c2nc(N)nc3c2CCCc2ccccc2-3)C1 [Example 76, 4-((R)-3-Dimethylamino-pyrrolidin-1-yl)-6,7-dihydro-5H-benzo[6,7]cyclohepta[1,2-d]pyrimidin-2-ylamine]
9333 | Nc1nc2c(c(N3CC4(CCCNC4)C3)n1)CCCc1ccccc1-2 [Example 77, 4-(2,6-Diaza-spiro[3.5]non-2-yl)-6,7-dihydro-5H-benzo[6,7]cyclohepta[1,2-d]pyrimidin-2-ylamine]
891 | Nc1nc2c(c(N3CC4(CCCCN4)C3)n1)CCCc1ccccc1-2 [Example 78, 4-(2,5-Diaza-spiro[3.5]non-2-yl)-6,7-dihydro-5H-benzo[6,7]cyclohepta[1,2-d]pyrimidin-2-ylamine]
89 | Nc1nc2c(c(N3CC4CCNCC4C3)n1)CCCc1ccccc1-2 (centres unmarked) [Example 79, 4-(Octahydro-pyrrolo[3,4-c]pyridin-2-yl)-6,7-dihydro-5H-benzo[6,7]cyclohepta[1,2-d]pyrimidin-2-ylamine]
178 | Nc1nc2c(c(N3CCN4CCCC4C3)n1)CCCc1ccccc1-2 (centres unmarked) [Example 80, 4-(Octahydro-pyrrolo[1,2-a]pyrazin-2-yl)-6,7-dihydro-5H-benzo[6,7]cyclohepta[1,2-d]pyrimidin-2-ylamine]
2951 | CC(=O)Nc1nc2c(c(N3CCNCC3)n1)CCCc1ccccc1-2 [Example 83, N-(4-Piperazin-1-yl-6,7-dihydro-5H-benzo[6,7]cyclohepta[1,2-d]pyrimidin-2-yl)-acetamide]
3388 | O=C(Nc1nc2c(c(N3CCNCC3)n1)CCCc1ccccc1-2)c1ccccc1 [Example 84, N-(4-Piperazin-1-yl-6,7-dihydro-5H-benzo[6,7]cyclohepta[1,2-d]pyrimidin-2-yl)-benzamide]
174 | CN(C)CC(=O)Nc1nc2c(c(N3CCNCC3)n1)CCCc1ccccc1-2 [Example 87, 2-Dimethylamino-N-(4-piperazin-1-yl-6,7-dihydro-5H-benzo[6,7]cyclohepta[1,2-d]pyrimidin-2-yl)-acetamide]
209 | CNCC(=O)Nc1nc2c(c(N3CCNCC3)n1)CCCc1ccccc1-2 [Example 88, 2-Methylamino-N-(4-piperazin-1-yl-6,7-dihydro-5H-benzo[6,7]cyclohepta[1,2-d]pyrimidin-2-yl)-acetamide]
89 | NCC(=O)Nc1nc2c(c(N3CCNCC3)n1)CCCc1ccccc1-2 [Example 89, 2-Amino-N-(4-piperazin-1-yl-6,7-dihydro-5H-benzo[6,7]cyclohepta[1,2-d]pyrimidin-2-yl)-acetamide]
25119 | CNC(=O)Nc1nc2c(c(N3CCNCC3)n1)CCCc1ccccc1-2 [Example 90, 1-Methyl-3-(4-piperazin-1-yl-6,7-dihydro-5H-benzo[6,7]cyclohepta[1,2-d]pyrimidin-2-yl)-urea]
550 | NCCCC(=O)Nc1nc2c(c(N3CCNCC3)n1)CCCc1ccccc1-2 [Example 91, 4-Amino-N-(4-piperazin-1-yl-6,7-dihydro-5H-benzo[6,7]cyclohepta[1,2-d]pyrimidin-2-yl)-butyramide]
135 | NCCC(=O)Nc1nc2c(c(N3CCNCC3)n1)CCCc1ccccc1-2 [Example 93, 3-Amino-N-(4-piperazin-1-yl-6,7-dihydro-5H-benzo[6,7]cyclohepta[1,2-d]pyrimidin-2-yl)-propionamide]
9.1 | Nc1nc2c(c(N3CCNCCNCC3)n1)CCCc1ccccc1-2 [Example 94, 4-[1,4,7]Triazonan-1-yl-6,7-dihydro-5H-benzo[6,7]cyclohepta[1,2-d]pyrimidin-2-ylamine]
1413 | CN(C)CCNc1nc2c(c(N3CCNCC3)n1)CCCc1ccccc1-2 [Example 95, N,N-Dimethyl-N′-(4-piperazin-1-yl-6,7-dihydro-5H-benzo[6,7]cyclohepta[1,2-d]pyrimidin-2-yl)-ethane-1,2-diamine]
